Legend:
A549-ACE2 [1] = assay: drug-induced phospholipidosis relative to tamoxifen; higher = more phospholipidosis
[2] = system: A549-ACE2 infected with SARS-CoV-2; assay: cell count relative to DMSO; higher = less toxic; details: 24 h
Caco-2 [3] = assay: cell viability relative to DMSO; higher = less toxic; details: 72 h
HepG2 [4] = assay: as above; details: 72 h
Calu-3 [5] = assay: as above; details: 72 h
U2OS [6] = assay: as above; details: 72 h
Vero E6 [7] = assay: as above; details: 72 h
HepG2 [8] = assay: relative viability EC50 (midpoint between 100% and the lowest measured viability); higher = less toxic; details: 72 h
Calu-3 [9] = assay: as above; details: 72 h
[10] = system: A549-ACE2 infected with SARS-CoV-2; assay: SARS-CoV-2 infection rate relative to DMSO; higher = more infection; details: 24 h
A549-ACE2 [11] = assay: phospholipidosis EC50; higher = less potent phospholipidosis inducer
[12] = system: A549-ACE2 infected with SARS-CoV-2; assay: morphology score (similarity to uninfected cells); higher = more like uninfected cells; details: 24 h
Caco-2 [13] = assay: drug sensitivity score (DSS) for viability; higher = more toxic; extreme values may be limits of the assay; details: 72 h
HepG2 [14] = assay: as above; details: 72 h
Calu-3 [15] = assay: as above; details: 72 h
U2OS [16] = assay: as above; details: 72 h
Vero E6 [17] = assay: as above; details: 72 h
Caco-2 [18] = assay: relative viability EC50 (midpoint between 100% and the lowest measured viability); higher = less toxic; details: 72 h
U2OS [19] = assay: as above; details: 72 h
Vero E6 [20] = assay: as above; details: 72 h

CCCCN1[C@@H]2CC[C@H]1C[C@@H](OC(c1ccc(F)cc1)c1ccc(F)cc1)C2 [JHW-007]
drug-induced phospholipidosis [%], A549-ACE2 [1]
Details	0.3 µM	0.833333 µM	3.33333 µM	6.66667 µM	10 µM
24 h	6	18.5	80.2	92.2	90
48 h	6.06	12.4	63.9	99	103
72 h	9.39	14.6	61.5	99.8	110

Details	SARS-CoV-2 infection rate [%]	cell count [%]	cell viability [%]	morphology score	phospholipidosis EC50 [µM]
A549-ACE2 [11], 24 h	–	–	–	–	1.59
A549-ACE2 [11], 48 h	–	–	–	–	3.06
A549-ACE2 [11], 72 h	–	–	–	–	3.56
Caco-2 [3], 1 nM	–	–	98.9	–	–
Caco-2 [3], 10 nM	–	–	98.3	–	–
Caco-2 [3], 100 nM	–	–	102	–	–
Caco-2 [3], 1000 nM	–	–	76	–	–
Caco-2 [3], 10000 nM	–	–	61.2	–	–
Calu-3 [5], 1 nM	–	–	96.8	–	–
Calu-3 [5], 10 nM	–	–	96.8	–	–
Calu-3 [5], 100 nM	–	–	98.4	–	–
Calu-3 [5], 1000 nM	–	–	96.6	–	–
Calu-3 [5], 10000 nM	–	–	28	–	–
HepG2 [4], 1 nM	–	–	96.6	–	–
HepG2 [4], 10 nM	–	–	95.1	–	–
HepG2 [4], 100 nM	–	–	96	–	–
HepG2 [4], 1000 nM	–	–	103	–	–
HepG2 [4], 10000 nM	–	–	36.1	–	–
U2OS [6], 1 nM	–	–	102	–	–
U2OS [6], 10 nM	–	–	97.9	–	–
U2OS [6], 100 nM	–	–	99.9	–	–
U2OS [6], 1000 nM	–	–	91.9	–	–
U2OS [6], 10000 nM	–	–	70.6	–	–
Vero E6 [7], 1 nM	–	–	102	–	–
Vero E6 [7], 10 nM	–	–	104	–	–
Vero E6 [7], 100 nM	–	–	100	–	–
Vero E6 [7], 1000 nM	–	–	99.3	–	–
Vero E6 [7], 10000 nM	–	–	61.8	–	–
[2], 0.1 µM	–	102	–	–	–
[2], 0.3 µM	–	106	–	–	–
[2], 1 µM	–	114	–	–	–
[2], 3 µM	–	116	–	–	–
[10], 0.1 µM	103	–	–	–	–
[10], 0.3 µM	85	–	–	–	–
[10], 1 µM	58	–	–	–	–
[10], 3 µM	20	–	–	–	–
[12], 0.1 µM	–	–	–	0.03	–
[12], 0.3 µM	–	–	–	0.4	–
[12], 1 µM	–	–	–	0.72	–
[12], 3 µM	–	–	–	0.93	–

Details	drug sensitivity score	relative viability EC50 [µM]
Caco-2 [13]	4.8	–
Calu-3 [9]	–	2.8
Calu-3 [15]	4.5	–
HepG2 [8]	–	3.44
HepG2 [14]	3.2	–
U2OS [16]	2.4	–
Vero E6 [17]	1.9	–

CCn1c2ccccc2c2cc(CNC)ccc21 [PhiKan-083]
drug-induced phospholipidosis [%], A549-ACE2 [1]
Details	0.3 µM	0.833333 µM	3.33333 µM	6.66667 µM	10 µM	30 µM
24 h	2.5	2.35	26.5	64.2	83.4	97.2
48 h	3.59	3.69	21.8	58.2	75.7	99.9
72 h	3.02	2.71	17.3	49	70.8	95.9

Details	SARS-CoV-2 infection rate [%]	cell count [%]	cell viability [%]	morphology score	phospholipidosis EC50 [µM]
A549-ACE2 [11], 24 h	–	–	–	–	5.19
A549-ACE2 [11], 48 h	–	–	–	–	6.25
A549-ACE2 [11], 72 h	–	–	–	–	6.91
Caco-2 [3], 1 nM	–	–	102	–	–
Caco-2 [3], 10 nM	–	–	100	–	–
Caco-2 [3], 100 nM	–	–	102	–	–
Caco-2 [3], 1000 nM	–	–	105	–	–
Caco-2 [3], 10000 nM	–	–	108	–	–
Calu-3 [5], 1 nM	–	–	96.2	–	–
Calu-3 [5], 10 nM	–	–	99.9	–	–
Calu-3 [5], 100 nM	–	–	105	–	–
Calu-3 [5], 1000 nM	–	–	97.6	–	–
Calu-3 [5], 10000 nM	–	–	103	–	–
HepG2 [4], 1 nM	–	–	98.2	–	–
HepG2 [4], 10 nM	–	–	106	–	–
HepG2 [4], 100 nM	–	–	97.4	–	–
HepG2 [4], 1000 nM	–	–	99.3	–	–
HepG2 [4], 10000 nM	–	–	68.3	–	–
U2OS [6], 1 nM	–	–	99.4	–	–
U2OS [6], 10 nM	–	–	100	–	–
U2OS [6], 100 nM	–	–	99.2	–	–
U2OS [6], 1000 nM	–	–	99.7	–	–
U2OS [6], 10000 nM	–	–	98.8	–	–
Vero E6 [7], 1 nM	–	–	98.5	–	–
Vero E6 [7], 10 nM	–	–	103	–	–
Vero E6 [7], 100 nM	–	–	98.7	–	–
Vero E6 [7], 1000 nM	–	–	99.9	–	–
Vero E6 [7], 10000 nM	–	–	90.8	–	–
[2], 0.3 µM	–	103	–	–	–
[2], 3 µM	–	105	–	–	–
[2], 10 µM	–	117	–	–	–
[2], 30 µM	–	119	–	–	–
[10], 0.3 µM	94	–	–	–	–
[10], 3 µM	79	–	–	–	–
[10], 10 µM	51	–	–	–	–
[10], 30 µM	16	–	–	–	–
[12], 0.3 µM	–	–	–	0.23	–
[12], 3 µM	–	–	–	0.46	–
[12], 10 µM	–	–	–	0.75	–
[12], 30 µM	–	–	–	0.82	–

Details	drug sensitivity score	relative viability EC50 [µM]
Caco-2 [13]	0	–
Caco-2 [18]	–	> 10
Calu-3 [9]	–	> 10
Calu-3 [15]	0	–
HepG2 [14]	1.5	–
U2OS [16]	0	–
U2OS [19]	–	> 10
Vero E6 [17]	0	–
Vero E6 [20]	–	> 10
